Tests used:
PIK3CD (Human) = PIK3CD (Human) (UniProt O00329); assay: Assessment of PI3KCD Kinase Activity
PIK3CA (human) = PIK3CA (human) (UniProt P42336); assay: Assessment of PI3KCA Kinase Activity
PIK3CB (Human) = PIK3CB (Human) (UniProt P42338); assay: Assessment of PI3KCB Kinase Activity
PIK3CG (human) = PIK3CG (human) (UniProt P48736); assay: Assessment of PI3KCG Kinase Activity
PIK3CG (human), sequence (P48736 whole entry, looked up): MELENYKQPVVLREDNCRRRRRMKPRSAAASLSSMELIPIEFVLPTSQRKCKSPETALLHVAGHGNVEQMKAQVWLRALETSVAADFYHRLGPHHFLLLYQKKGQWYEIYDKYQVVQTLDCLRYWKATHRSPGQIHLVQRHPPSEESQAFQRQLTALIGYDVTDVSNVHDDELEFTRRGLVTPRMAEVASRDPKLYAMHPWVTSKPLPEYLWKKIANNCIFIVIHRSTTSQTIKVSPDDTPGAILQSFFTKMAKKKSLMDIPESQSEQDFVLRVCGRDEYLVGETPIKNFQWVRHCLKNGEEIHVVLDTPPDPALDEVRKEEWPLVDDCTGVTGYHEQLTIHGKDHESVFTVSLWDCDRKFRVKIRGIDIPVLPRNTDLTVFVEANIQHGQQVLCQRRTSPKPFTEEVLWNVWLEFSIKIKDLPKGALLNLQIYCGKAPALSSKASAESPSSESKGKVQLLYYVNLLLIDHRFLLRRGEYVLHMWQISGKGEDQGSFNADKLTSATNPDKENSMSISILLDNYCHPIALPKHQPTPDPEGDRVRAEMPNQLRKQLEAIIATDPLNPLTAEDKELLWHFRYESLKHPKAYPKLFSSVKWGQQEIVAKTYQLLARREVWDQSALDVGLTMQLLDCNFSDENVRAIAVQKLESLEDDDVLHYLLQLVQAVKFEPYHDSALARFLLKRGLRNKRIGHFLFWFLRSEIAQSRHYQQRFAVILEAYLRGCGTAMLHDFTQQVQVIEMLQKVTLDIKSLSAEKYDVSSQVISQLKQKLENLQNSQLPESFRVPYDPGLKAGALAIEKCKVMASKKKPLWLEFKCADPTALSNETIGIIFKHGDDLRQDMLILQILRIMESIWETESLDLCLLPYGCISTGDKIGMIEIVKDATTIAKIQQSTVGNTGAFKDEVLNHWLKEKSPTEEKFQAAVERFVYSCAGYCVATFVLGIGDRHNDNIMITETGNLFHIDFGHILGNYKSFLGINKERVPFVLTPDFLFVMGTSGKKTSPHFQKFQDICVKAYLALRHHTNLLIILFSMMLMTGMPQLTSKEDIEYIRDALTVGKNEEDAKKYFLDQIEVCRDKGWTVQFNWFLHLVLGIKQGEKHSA

PIK3CB (Human), sequence (P42338 whole entry, looked up): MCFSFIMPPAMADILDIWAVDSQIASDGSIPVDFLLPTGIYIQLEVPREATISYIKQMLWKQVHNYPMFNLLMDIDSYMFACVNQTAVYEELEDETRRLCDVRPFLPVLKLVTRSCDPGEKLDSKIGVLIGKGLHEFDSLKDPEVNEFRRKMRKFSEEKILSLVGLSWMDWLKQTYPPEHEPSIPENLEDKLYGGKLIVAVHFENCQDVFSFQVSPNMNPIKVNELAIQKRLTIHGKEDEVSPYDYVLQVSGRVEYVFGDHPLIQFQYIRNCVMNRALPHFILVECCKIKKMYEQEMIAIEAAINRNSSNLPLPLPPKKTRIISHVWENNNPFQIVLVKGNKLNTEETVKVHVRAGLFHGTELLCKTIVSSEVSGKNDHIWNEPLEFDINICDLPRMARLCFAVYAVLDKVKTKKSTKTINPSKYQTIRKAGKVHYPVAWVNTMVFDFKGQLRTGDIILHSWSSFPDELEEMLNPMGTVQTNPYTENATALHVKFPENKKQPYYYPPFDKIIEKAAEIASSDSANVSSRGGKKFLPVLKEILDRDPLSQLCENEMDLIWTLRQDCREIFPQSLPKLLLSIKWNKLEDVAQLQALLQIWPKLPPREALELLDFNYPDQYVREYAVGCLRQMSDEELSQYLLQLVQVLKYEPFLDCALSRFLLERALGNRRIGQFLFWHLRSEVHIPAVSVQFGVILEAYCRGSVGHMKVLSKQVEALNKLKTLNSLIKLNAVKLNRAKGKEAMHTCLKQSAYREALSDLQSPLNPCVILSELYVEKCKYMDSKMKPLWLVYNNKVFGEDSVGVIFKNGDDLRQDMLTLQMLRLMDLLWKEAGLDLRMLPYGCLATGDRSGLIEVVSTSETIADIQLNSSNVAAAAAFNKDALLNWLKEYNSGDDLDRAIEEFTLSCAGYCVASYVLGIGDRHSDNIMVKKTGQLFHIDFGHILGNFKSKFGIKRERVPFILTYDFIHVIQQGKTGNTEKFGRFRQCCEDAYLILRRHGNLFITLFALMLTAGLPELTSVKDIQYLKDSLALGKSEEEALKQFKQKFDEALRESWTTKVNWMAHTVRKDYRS
PIK3CD (Human), sequence (O00329 whole entry, looked up): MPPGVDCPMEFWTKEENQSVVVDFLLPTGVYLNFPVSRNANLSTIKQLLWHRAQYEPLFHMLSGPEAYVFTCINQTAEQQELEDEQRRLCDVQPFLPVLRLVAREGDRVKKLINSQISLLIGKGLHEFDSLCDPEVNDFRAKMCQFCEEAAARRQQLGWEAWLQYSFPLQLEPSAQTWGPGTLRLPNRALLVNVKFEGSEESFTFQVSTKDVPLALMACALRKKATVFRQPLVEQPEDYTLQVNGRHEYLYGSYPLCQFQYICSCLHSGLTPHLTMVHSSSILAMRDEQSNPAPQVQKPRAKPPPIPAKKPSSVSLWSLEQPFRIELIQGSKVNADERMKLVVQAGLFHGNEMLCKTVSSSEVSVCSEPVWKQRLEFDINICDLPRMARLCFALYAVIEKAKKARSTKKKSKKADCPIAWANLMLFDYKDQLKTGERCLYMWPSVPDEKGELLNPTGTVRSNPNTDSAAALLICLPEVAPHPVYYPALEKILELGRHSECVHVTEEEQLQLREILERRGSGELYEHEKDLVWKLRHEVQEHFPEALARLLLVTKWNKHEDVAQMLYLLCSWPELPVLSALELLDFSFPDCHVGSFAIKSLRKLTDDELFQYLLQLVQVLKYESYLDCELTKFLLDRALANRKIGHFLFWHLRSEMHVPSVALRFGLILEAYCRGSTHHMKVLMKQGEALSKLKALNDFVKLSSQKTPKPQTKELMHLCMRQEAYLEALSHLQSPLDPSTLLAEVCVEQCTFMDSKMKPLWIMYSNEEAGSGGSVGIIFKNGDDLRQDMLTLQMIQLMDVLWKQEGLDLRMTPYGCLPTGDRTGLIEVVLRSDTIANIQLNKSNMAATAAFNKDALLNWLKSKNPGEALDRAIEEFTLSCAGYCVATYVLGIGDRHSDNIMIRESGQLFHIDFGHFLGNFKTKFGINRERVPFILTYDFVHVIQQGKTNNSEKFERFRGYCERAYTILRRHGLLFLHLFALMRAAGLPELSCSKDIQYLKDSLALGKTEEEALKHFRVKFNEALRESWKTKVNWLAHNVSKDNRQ
PIK3CA (human), sequence (P42336 whole entry, looked up): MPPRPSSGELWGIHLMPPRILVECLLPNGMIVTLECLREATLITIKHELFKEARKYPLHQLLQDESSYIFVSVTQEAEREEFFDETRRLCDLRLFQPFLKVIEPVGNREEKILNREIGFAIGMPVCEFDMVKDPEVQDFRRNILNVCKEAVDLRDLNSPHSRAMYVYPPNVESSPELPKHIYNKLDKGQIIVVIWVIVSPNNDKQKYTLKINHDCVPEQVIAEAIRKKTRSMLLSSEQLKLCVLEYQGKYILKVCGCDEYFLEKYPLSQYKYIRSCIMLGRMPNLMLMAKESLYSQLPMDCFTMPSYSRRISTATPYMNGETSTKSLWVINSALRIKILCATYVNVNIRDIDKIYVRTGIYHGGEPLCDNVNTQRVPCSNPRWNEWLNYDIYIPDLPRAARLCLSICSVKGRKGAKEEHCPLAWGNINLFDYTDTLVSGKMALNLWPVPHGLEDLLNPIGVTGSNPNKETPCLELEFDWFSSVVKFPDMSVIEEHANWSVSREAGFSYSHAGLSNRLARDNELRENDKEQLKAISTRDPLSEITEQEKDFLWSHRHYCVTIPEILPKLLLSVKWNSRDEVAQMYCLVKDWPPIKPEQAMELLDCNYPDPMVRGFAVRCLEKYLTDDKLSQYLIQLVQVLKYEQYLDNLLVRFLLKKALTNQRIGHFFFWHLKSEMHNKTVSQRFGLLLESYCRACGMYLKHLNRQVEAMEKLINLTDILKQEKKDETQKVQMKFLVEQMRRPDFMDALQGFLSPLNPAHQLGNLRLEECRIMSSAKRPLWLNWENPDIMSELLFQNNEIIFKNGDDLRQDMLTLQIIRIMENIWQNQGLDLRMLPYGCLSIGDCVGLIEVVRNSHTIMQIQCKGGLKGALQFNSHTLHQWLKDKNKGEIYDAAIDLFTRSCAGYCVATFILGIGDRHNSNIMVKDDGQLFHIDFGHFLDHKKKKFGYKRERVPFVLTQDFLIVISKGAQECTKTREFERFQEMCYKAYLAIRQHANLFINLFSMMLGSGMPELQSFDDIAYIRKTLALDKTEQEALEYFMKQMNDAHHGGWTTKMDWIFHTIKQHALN

Compound	IC50 (PIK3CD (Human)) [nM]	IC50 (PIK3CA (human)) [nM]	IC50 (PIK3CB (Human)) [nM]	IC50 (PIK3CG (human)) [nM]
CC(=O)Nc1nc2ccc(-c3nn(Cc4cc5cccc(C)c5c(=O)n4C4CCC4)c4ncnc(N)c34)cc2s1	< 100	< 100	–	–
CC(=O)Nc1nc2ccc(-c3nn(Cc4cc5cccc(Cl)c5c(=O)n4C(C)C)c4ncnc(N)c34)cc2s1	< 100	< 100	< 100	–
CC(=O)Nc1nc2ccc(-c3nn(Cc4cc5cccc(C)c5c(=O)n4C)c4ncnc(N)c34)cc2s1	< 100	< 100	–	–
CC(=O)Nc1nc2ccc(-c3nn(Cc4cc5cccc(Cl)c5c(=O)n4C4CC4)c4ncnc(N)c34)cc2s1	< 100	< 100	< 100	–
CC(=O)Nc1nc2ccc(-c3nn(Cc4cc5cccc(F)c5c(=O)n4C(C)C)c4ncnc(N)c34)cc2s1	< 100	< 100	–	–
Cc1ccccc1-n1c(Cn2nc(-c3ccc4nc(N)ncc4c3)c3c(N)ncnc32)cc2cccc(C)c2c1=O	< 100	< 100	–	< 100
Nc1ncnc2c1c(-c1cc(O)cc(F)c1)nn2Cc1cc2cccc(Cl)c2c(=O)n1C1CC1	< 100	< 100	< 100	< 100
CCn1c(Cn2nc(-c3ccc4nc(NC(C)=O)sc4c3)c3c(N)ncnc32)cc2cccc(C)c2c1=O	< 100	< 100	–	< 100
CC(=O)Nc1nc2ccc(-c3nn(Cc4cc5cccc(C)c5c(=O)n4C4CC4)c4ncnc(N)c34)cc2s1	< 100	< 100	< 100	–
Cc1ccccc1-n1c(Cn2nc(C)c3c(N)ncnc32)nc2scc(C)c2c1=O	< 100	–	–	< 100
Cc1cccc2cc(Cn3nc(-c4cc(O)cc(F)c4)c4c(N)ncnc43)n(C3CCCC3)c(=O)c12	< 100	–	–	< 100
Cc1ccccc1-n1c(Cn2nc(-c3cccc(O)c3)c3c(N)ncnc32)cc2nccc(C)c2c1=O	< 100	–	–	< 100
Cc1cccc2cc(Cn3nc(I)c4c(N)ncnc43)n(-c3ccccc3C(C)C)c(=O)c12	< 100	–	–	< 100
Cc1ccccc1-n1c(Cn2nc(C3=CCC4OC(N)=NC4=C3)c3c(N)ncnc32)cc2cccc(C)c2c1=O (stereo not drawn)	< 100	–	–	< 100
CC(=O)Nc1nc2ccc(-c3nn(Cc4cc5cccc(C)c5c(=O)n4C(C)C)c4ncnc(N)c34)cc2s1	< 100	< 100	–	–
CCc1ccccc1-n1c(Cn2nc(Br)c3c(N)ncnc32)nc2scc(C)c2c1=O	< 100	–	–	< 100

Compound	IC50 (PIK3CD (Human)) [nM]	IC50 (PIK3CA (human)) [nM]	IC50 (PIK3CB (Human)) [nM]	IC50 (PIK3CG (human)) [nM]
Cc1cccc2cc(Cn3nc(-c4cc(O)cc(F)c4)c4c(N)ncnc43)n(C3CC3)c(=O)c12	< 100	–	< 100	< 100
CC(=O)Nc1nc2ccc(-c3nn(Cc4cc5cccc(C)c5c(=O)n4-c4ccccc4)c4ncnc(N)c34)cc2s1	< 100	–	–	< 100
CCc1ccccc1-n1c(Cn2nc(I)c3c(N)ncnc32)cc2cccc(C)c2c1=O	< 100	–	–	< 100
Cc1ccccc1-n1c(Cn2nc(-c3ccc(O)c(Cl)c3)c3c(N)ncnc32)cc2cccc(C)c2c1=O	< 100	–	–	< 100
Cc1cccc2cc(Cn3nc(I)c4c(N)ncnc43)n(-c3ccccc3O)c(=O)c12	< 100	–	–	< 100
Cc1cccc2cc(Cn3nc(-c4cccc(O)c4)c4c(N)ncnc43)n(C3CC3)c(=O)c12	< 100	–	–	< 100
CNC(=O)Nc1nc2ccc(-c3nn(Cc4cc5cccc(C)c5c(=O)n4-c4ccccc4C)c4ncnc(N)c34)cc2s1	< 100	< 100	–	< 100
Cc1cccc2cc(Cn3nc(-c4ccc(F)c(O)c4)c4c(N)ncnc43)n(C3CCCC3)c(=O)c12	< 100	–	–	< 100
Cc1cccc2cc(Cn3nc(-c4ccc(Cl)c(O)c4)c4c(N)ncnc43)n(-c3ccccc3F)c(=O)c12	< 100	–	–	< 100
Cc1ccccc1-n1c(Cn2nc(-c3cc(O)cc(F)c3)c3c(N)ncnc32)cc2nccc(C)c2c1=O	< 100	–	–	< 100
Cc1csc2nc(Cn3nc(-c4cccc(O)c4)c4c(N)ncnc43)n(-c3ccccc3C(C)C)c(=O)c12	< 100	–	–	< 100
Cc1ccccc1-n1c(Cn2nc(I)c3c(N)ncnc32)cc2cccc(C)c2c1=O	< 100	–	–	< 100
Cc1cccc2cc(Cn3nc(-c4cccc(O)c4)c4c(N)ncnc43)n(-c3ccccc3O)c(=O)c12	< 100	–	–	< 100
Cc1ccccc1-n1c(Cn2nc(-c3cccc(O)c3)c3c(N)ncnc32)cc2cccc(C)c2c1=O	< 100	–	–	< 100
CCc1ccccc1-n1c(Cn2nc(-c3cc(O)cc(F)c3)c3c(N)ncnc32)cc2cccc(C)c2c1=O	< 100	–	–	< 100
Cc1cccc2cc(Cn3nc(-c4cccc(O)c4)c4c(N)ncnc43)n(-c3ccccc3Cl)c(=O)c12	< 100	–	–	< 100
